Measurements published in patent US20120214193A1, “METHOD FOR MEASUREMENT OF FLUORESCENCE INTENSITY OF VOLTAGE-SENSITIVE FLUORESCENT DYE” (Keio University, priority 2009, published 2012).

Test system: human ES cell derived cardiomyocytes
Test: Activity potential measurement of cardiomyocytes treated with a potential-sensitive fluorochrome
Type: cell-based
Conditions: 18.75 μM vitamin E and/or 18.75 μM cholesterol
Text: Human embryonic stem cells (ES cells) were obtained from Stem Cell Research Center, the Institute for Frontier Medical Sciences, Kyoto University (Embryonic Stem Cell Center sponsored by the National Bioresource Project). Human induced pluripotent stem cells (iPS cells) were obtained from the Center for iPS Cell Research and Application, Institute for Integrated Cell-Material Sciences, Kyoto University. […] To prepare the MEF cells, the fetus of an ICR mouse at day 14 of gestation (CLEA Japan, Inc.) was beheaded and disemboweled and thereafter disintegrated into discrete cells by the method described in WO 2006/022377. […] In other experiments, the cultured cells were treated with a potential-sensitive fluorochrome and 18.75 μM of vitamin E and/or 18.75 μM of cholesterol and then the temporal change in fluorescent intensity was measured. […]

Compound | detection of activity potential waveforms from single cardiomyocytes (FIG. 5)
CC(C)CCC[C@@H](C)[C@H]1CC[C@H]2[C@@H]3CC=C4C[C@@H](O)CC[C@]4(C)[C@H]3CC[C@]12C [cholesterol] | became observable
vitamin E | became observable
